Results on 1 molecule are retold here after patent US12409180B2, “Formulation production process” (Verona Pharma PLC, priority 2022, dated 2025).

SMILES strings stand for the structures.

Holding throughout (assay type): physicochemical
Series [1] can be described thus: Assay testing by HPLC of products after sterilisation. Particulars: dry heat treatment at temperatures of from 150° C. to 170° C. On the procedure: (§1) Assay testing was performed in duplicate with the key high performance liquid chromatography (HPLC) parameters shown in Table 1.
(§2) The assays and related substances of the products obtained by each of sterilisation techniques A to F were assessed by the HPLC methods described above.

Series [2] in a line: Overall assessment of products (assay and related substances) after sterilisation. The protocol:
as §1
(§3) Impurities determination was performed in duplicate with the key high performance liquid chromatography (HPLC) parameters shown in Table 2.
as §2

A short description of series [3]: Impurities determination (related substances) by HPLC of products after sterilisation. Particulars: dry heat treatment at temperatures of from 150° C. to 170° C. On the procedure:
as §3, §2

For the molecule `COc1cc2c(cc1OC)-c1c/c(=N\c3c(C)cc(C)cc3C)n(CCNC(N)=O)c(=O)n1CC2` [micronised ensifentrine, N-(2-{(2E)-9,10-dimethoxy-4-oxo-2-[(2,4,6-trimethylphenyl)imino]-6,7-dihydro-2H-pyrimido [6,1-a]isoquinolin-3(4H)-yl}ethyl) urea], the changes in assay entry in series [1] is on record as “no significant changes”. Also, the “changes observed (assay and related substances)” value in series [2] (technique C: dry heat treatment of dry powder, 150° C. for 150 minutes) is “No significant changes observed”; in series [2] (technique D: dry heat treatment of dry powder, 160° C. for 120 minutes) it was “No significant changes observed”; in series [2] (technique E: dry heat treatment of dry powder, 170° C. for 60 minutes), “No significant changes observed”. Also, the changes in purity entry in series [3] is “no significant changes”.
